{"source": "paper PMC7377239", "about": "“Cardiovascular Effects of Polychlorinated Biphenyls and Their Major Metabolites” (Environmental Health Perspectives, 2020)", "key": {"[1]": {"tested_on": "iPSC-CMs, iPSC-ECs and HUVECs phenotypes", "experiment": "ToxPi 2.0 integration of POD values and physicochemical descriptors", "set-up": "species or system human", "conditions": "ToxPi-scaled (0-1) score", "outline": "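Phenotypic readouts in iPSC-cardiomyocytes, iPSC-endothelial cells and HUVECs were normalised to 0.5% DMSO vehicle and fitted to a four-parameter logistic model. POD set at one SD cutoff of vehicle means, with 100 μM assigned when no response. PODs and physicochemical descriptors combined in ToxPi 2.0 scores.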"}, "[2]": {"tested_on": "iCell cardiomyocytes (human iPSC-derived cardiomyocytes)", "experiment": "High-content imaging of cytotoxicity and mitochondrial integrity in iPSC-CMs", "assay_type": "cell-based", "conditions": "Homo sapiens, Cardiomyocyte, cardiomyocytes (cm)", "outline": "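This assay measured cytotoxicity and mitochondrial integrity in iPSC cardiomyocytes held in 40μL maintenance medium. After compound exposure, a 2× staining solution with Hoechst 33342 (4μg/mL) and MitoTracker™ Orange (0.4μM) was applied for 15 min at 37°C. Cells were washed, fixed with 3.7% formaldehyde, imaged on DAPI and Cy3 channels, and scored in MetaXpress®.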"}, "[3]": {"conditions": "iPSC endothelial cells, tube formation, 18 h"}}, "note": "Like-named read-outs stand apart in the source and are kept apart here.", "data": [{"compound": "Oc1cc(Cl)c(-c2cc(Cl)ccc2Cl)cc1Cl", "note": "[4-OH-PCB 52]", "values": [{"measurement": "huvec.cyto.24hr", "setting": "[1]; HUVECs, 24 h", "value": 0.4769}, {"measurement": "huvec.mito.24hr", "setting": "[1]; HUVECs, 24 h", "value": 0.5351}, {"measurement": "huvec.mitoint.24hr", "setting": "[1]; HUVECs, 24 h", "value": 0.7457}, {"measurement": "huvec.nma.24hr", "setting": "[1]; HUVECs, 24 h", "value": 0}, {"measurement": "huvec.tc.24hr", "setting": "[1]; HUVECs, 24 h", "value": 0.4769}, {"measurement": "huvec.mtl.18hr", "setting": "[1]; HUVECs, tube formation, 18 h", "value": 0.5555}, {"measurement": "huvec.tlps.18hr", "setting": "[1]; HUVECs, tube formation, 18 h", "value": 0.604}, {"measurement": "huvec.tta.18hr", "setting": "[1]; HUVECs, tube formation, 18 h", "value": 0.1308}, {"measurement": "huvec.ttl.18hr", "setting": "[1]; HUVECs, tube formation, 18 h", "value": 0.07185}, {"measurement": "cm.amp.avg.90min", "setting": "[1]; iPSC cardiomyocytes, 90 min", "value": 0.2901}, {"measurement": "cm.amp.cv.90min", "setting": "[1]; iPSC cardiomyocytes, 90 min", "value": 0.2696}, {"measurement": "cm.bpm.90min", "setting": "[1]; iPSC cardiomyocytes, 90 min", "value": 1}, {"measurement": "cm.cam.90min", "setting": "[1]; iPSC cardiomyocytes, 90 min", "value": 1}, {"measurement": "cm.decay.rise.90min", "setting": "[1]; iPSC cardiomyocytes, 90 min", "value": 0.2017}, {"measurement": "cm.mii.90min", "setting": "[1]; iPSC cardiomyocytes, 90 min", "value": 0.2919}, {"measurement": "cm.mito.90min", "setting": "[1]; iPSC cardiomyocytes, 90 min", "value": 1}, {"measurement": "cm.spacing.cv.90min", "setting": "[1]; iPSC cardiomyocytes, 90 min", "value": 0.1401}, {"measurement": "cm.tc.90min", "setting": "[1]; iPSC cardiomyocytes, 90 min", "value": 1}, {"measurement": "cm.amp.avg.24hrs", "setting": "[1]; iPSC cardiomyocytes, 24 h", "value": 0.1949}, {"measurement": "cm.amp.cv.24hrs", "setting": "[1]; iPSC cardiomyocytes, 24 h", "value": 0.09883}, {"measurement": "cm.bpm.24hrs", "setting": "[1]; iPSC cardiomyocytes, 24 h", "value": 0.4544}, {"measurement": "cm.cam.24hrs", "setting": "[1]; iPSC cardiomyocytes, 24 h", "value": 0.15}, {"measurement": "cm.decay.rise.24hrs", "setting": "[1]; iPSC cardiomyocytes, 24 h", "value": 0.2583}, {"measurement": "cm.mii.24hrs", "setting": "[1]; iPSC cardiomyocytes, 24 h", "value": 0.1136}, {"measurement": "cm.mito.24hrs", "setting": "[1]; iPSC cardiomyocytes, 24 h", "value": 0.2161}, {"measurement": "cm.spacing.cv.24hrs", "setting": "[1]; iPSC cardiomyocytes, 24 h", "value": 0.3488}, {"measurement": "cm.tc.24hrs", "setting": "[1]; iPSC cardiomyocytes, 24 h", "value": 0.2027}, {"measurement": "endo.cyto.24hr", "setting": "[1]; iPSC endothelial cells, 24 h", "value": 0.3535}, {"measurement": "endo.mito.24hr", "setting": "[1]; iPSC endothelial cells, 24 h", "value": 0.3535}, {"measurement": "endo.mitoint.24hr", "setting": "[1]; iPSC endothelial cells, 24 h", "value": 0.1136}, {"measurement": "endo.nma.24hr", "setting": "[1]; iPSC endothelial cells, 24 h", "value": 0.0802}, {"measurement": "endo.tc.24hr", "setting": "[1]; iPSC endothelial cells, 24 h", "value": 0.3161}, {"measurement": "endo.mtl.18hr", "setting": "[1]; [3]", "value": 0.2459}, {"measurement": "endo.tlps.18hr", "setting": "[1]; [3]", "value": 0.3982}, {"measurement": "endo.tta.18hr", "setting": "[1]; [3]", "value": 0.1729}, {"measurement": "endo.ttl.18hr", "setting": "[1]; [3]", "value": 0.1737}, {"measurement": "minimal effective concentration", "setting": "[2]; 1.5 h, cam, 90 min, read-out: POD cm.cam.90min", "value": 8.86, "unit": "µM"}, {"measurement": "minimal effective concentration", "setting": "[2]; 1.5 h, mii, 90 min, read-out: POD cm.mii.90min", "value": 45.7, "unit": "µM"}, {"measurement": "minimal effective concentration", "setting": "[2]; 1.5 h, mito, 90 min, read-out: POD cm.mito.90min", "value": 8.61, "unit": "µM"}, {"measurement": "minimal effective concentration", "setting": "[2]; 1.5 h, tc, 90 min, read-out: POD cm.tc.90min", "value": 8.75, "unit": "µM"}, {"measurement": "minimal effective concentration", "setting": "[2]; 24 h, cam, 24 hrs, read-out: POD cm.cam.24hrs", "value": 32.7, "unit": "µM"}, {"measurement": "minimal effective concentration", "setting": "[2]; 24 h, mii, 24 hrs, read-out: POD cm.mii.24hrs", "value": 65.1, "unit": "µM"}, {"measurement": "minimal effective concentration", "setting": "[2]; 24 h, mito, 24 hrs, read-out: POD cm.mito.24hrs", "value": 36.7, "unit": "µM"}, {"measurement": "minimal effective concentration", "setting": "[2]; 24 h, tc, 24 hrs, read-out: POD cm.tc.24hrs", "value": 41.4, "unit": "µM"}]}]}
